Test results as given in patent publication US11877574B2, “Herbicidal oil dispersion and method” (Arysta LifeScience Inc., priority 2018, dated 2024).

Tests used:
[1] = Active ingredient assay and recovery on storage (Table 2); assay type: physicochemical
[2] = Active ingredient assay on storage, SCB239-12 (Table 3); assay type: physicochemical

In the case of `CCCCCCCC(=O)Oc1c(Br)cc(C#N)cc1Br` [Bromoxynil, Bromoxynil Octanoate], the “Assay (% w/w)” value ([1]; 1 month storage, 0° C.) is reported as 31.04 % w/w, the “Assay (% w/w)” value ([1]; 1 month storage, 40° C.) is reported as 31.46 % w/w and the “Assay (% w/w)” value ([1]; 1 month storage, T/C) is reported as 31.27 % w/w. For the same molecule, the “Assay (% w/w)” value ([1]; 1 month storage, −10° C.) was 31.44 % w/w, the “Assay (% w/w)” value ([1]; 2 month storage, 0° C.) was 31.30 % w/w and the “Assay (% w/w)” value ([1]; 2 month storage, 40° C.) was 30.78 % w/w. For the same molecule, the “Assay (% w/w)” value ([1]; 2 month storage, T/C) was 30.99 % w/w, the “Assay (% w/w)” value ([1]; 2 month storage, −10° C.) was 31.34 % w/w and the “Assay (% w/w)” value ([1]; 2 wks, 54° C.) was 31.02 % w/w. For the same molecule, the “Assay (% w/w)” value ([1]; 3 month storage, 0° C.) was 32.81 % w/w, the “Assay (% w/w)” value ([1]; 3 month storage, 25° C.) was 32.57 % w/w and the “Assay (% w/w)” value ([1]; 3 month storage, 40° C.) was 32.17 % w/w. For the same molecule, the “Assay (% w/w)” value ([1]; 3 month storage, T/C) was 32.54 % w/w, the “Assay (% w/w)” value ([1]; 3 month storage, −10° C.) was 33.06 % w/w and the “Assay (% w/w)” value ([1]; 6 month storage, 25° C.) was 31.38 % w/w. For the same molecule, the “Assay (% w/w)” value ([1]; 9 month storage, 25° C.) was 32.11 % w/w, the “Assay (% w/w)” value ([1]; 12 month storage, 25° C.) was 31.19 % w/w and the “Assay (% w/w)” value ([1]; F/T Sample) was 31.42 % w/w. The “Assay (% w/w)” value ([1]; initial) was 31.32 % w/w, the “Assay (% w/w)” value ([2]; 1 month storage, 0° C.) was 31.08 % w/w and the “Recovery of active ingredient (% of initial assay)” value (shortened to “Recovery … (% of initial assay)”) ([2]; 1 month storage, 0° C.) was 99.56 % w/w. The “Assay (% w/w)” value ([2]; 1 month storage, 40° C.) was 30.65 % w/w, the “Recovery … (% of initial assay)” value ([2]; 1 month storage, 40° C.) was 98.17 % w/w and the “Assay (% w/w)” value ([2]; 1 month storage, T/C) was 30.89 % w/w. For the same molecule, the “Recovery … (% of initial assay)” value ([2]; 1 month storage, T/C) was 98.95 % w/w, the “Assay (% w/w)” value ([2]; 2 month storage, 0° C.) was 30.30 % w/w and the “Recovery … (% of initial assay)” value ([2]; 2 month storage, 0° C.) was 97.06 % w/w. For the same molecule, the “Assay (% w/w)” value ([2]; 2 month storage, 40° C.) was 29.43 % w/w, the “Recovery … (% of initial assay)” value ([2]; 2 month storage, 40° C.) was 94.28 % w/w and the “Assay (% w/w)” value ([2]; 2 month storage, T/C) was 29.88 % w/w. For the same molecule, the “Recovery … (% of initial assay)” value ([2]; 2 month storage, T/C) was 95.73 % w/w, the “Assay (% w/w)” value ([2]; 2 wks, 54° C.) was 30.55 % w/w and the “Recovery … (% of initial assay)” value ([2]; 2 wks, 54° C.) was 97.86 % w/w. The “Assay (% w/w)” value ([2]; 3 month storage, 0° C.) was 30.06 % w/w, the “Recovery … (% of initial assay)” value ([2]; 3 month storage, 0° C.) was 96.31 % w/w and the “Assay (% w/w)” value ([2]; 3 month storage, 25° C.) was 30.03 % w/w. The “Recovery … (% of initial assay)” value ([2]; 3 month storage, 25° C.) was 96.21 % w/w, the “Assay (% w/w)” value ([2]; 3 month storage, 40° C.) was 29.37 % w/w and the “Recovery … (% of initial assay)” value ([2]; 3 month storage, 40° C.) was 94.07 % w/w. The “Assay (% w/w)” value ([2]; 3 month storage, −10° C.) was 30.49 % w/w, the “Recovery … (% of initial assay)” value ([2]; 3 month storage, −10° C.) was 97.68 % w/w and the “Assay (% w/w)” value ([2]; F/T sample) was 31.13 % w/w. For the same molecule, the “Recovery … (% of initial assay)” value ([2]; F/T sample) was 99.73 % w/w and the “Assay (% w/w)” value ([2]; Initial) was 31.22 % w/w.
In the case of `COc1nn(C(=O)[N-]S(=O)(=O)c2ccccc2OC(F)(F)F)c(=O)n1C.[Na+]` [Flucarbazone, Flucarbazone Sodium], the “Assay (% w/w)” value ([1]; 1 month storage, 0° C.) is reported as 1.89 % w/w, the “Assay (% w/w)” value ([1]; 1 month storage, 40° C.) is reported as 1.90 % w/w and the “Assay (% w/w)” value ([1]; 1 month storage, T/C) is reported as 1.90 % w/w. For the same molecule, the “Assay (% w/w)” value ([1]; 1 month storage, −10° C.) was 1.90 % w/w, the “Assay (% w/w)” value ([1]; 2 month storage, 0° C.) was 1.93 % w/w and the “Assay (% w/w)” value ([1]; 2 month storage, 40° C.) was 1.91 % w/w. The “Assay (% w/w)” value ([1]; 2 month storage, T/C) was 1.93 % w/w, the “Assay (% w/w)” value ([1]; 2 month storage, −10° C.) was 1.93 % w/w and the “Assay (% w/w)” value ([1]; 2 wks, 54° C.) was 1.90 % w/w. The “Assay (% w/w)” value ([1]; 3 month storage, 0° C.) was 1.98 % w/w, the “Assay (% w/w)” value ([1]; 3 month storage, 25° C.) was 1.99 % w/w and the “Assay (% w/w)” value ([1]; 3 month storage, 40° C.) was 1.94 % w/w. The “Assay (% w/w)” value ([1]; 3 month storage, T/C) was 1.98 % w/w, the “Assay (% w/w)” value ([1]; 3 month storage, −10° C.) was 1.99 % w/w and the “Assay (% w/w)” value ([1]; 6 month storage, 25° C.) was 1.92 % w/w. The “Assay (% w/w)” value ([1]; 9 month storage, 25° C.) was 1.92 % w/w, the “Assay (% w/w)” value ([1]; 12 month storage, 25° C.) was 1.92 % w/w and the “Assay (% w/w)” value ([1]; F/T Sample) was 1.92 % w/w. The “Assay (% w/w)” value ([1]; initial) was 1.91 % w/w, the “Assay (% w/w)” value ([2]; 1 month storage, 0° C.) was 1.81 % w/w and the “Recovery … (% of initial assay)” value ([2]; 1 month storage, 0° C.) was 99.67 % w/w. For the same molecule, the “Assay (% w/w)” value ([2]; 1 month storage, 40° C.) was 1.85 % w/w, the “Recovery … (% of initial assay)” value ([2]; 1 month storage, 40° C.) was 101.98 % w/w and the “Assay (% w/w)” value ([2]; 1 month storage, T/C) was 1.83 % w/w. For the same molecule, the “Recovery … (% of initial assay)” value ([2]; 1 month storage, T/C) was 101.13 % w/w, the “Assay (% w/w)” value ([2]; 2 month storage, 0° C.) was “′1.81 % w/w” and the “Recovery … (% of initial assay)” value ([2]; 2 month storage, 0° C.) was 99.76 % w/w. For the same molecule, the “Assay (% w/w)” value ([2]; 2 month storage, 40° C.) was 1.80 % w/w, the “Recovery … (% of initial assay)” value ([2]; 2 month storage, 40° C.) was 99.54 % w/w and the “Assay (% w/w)” value ([2]; 2 month storage, T/C) was 1.82 % w/w. For the same molecule, the “Recovery … (% of initial assay)” value ([2]; 2 month storage, T/C) was 100.35 % w/w, the “Assay (% w/w)” value ([2]; 2 wks, 54° C.) was 1.68 % w/w and the “Recovery … (% of initial assay)” value ([2]; 2 wks, 54° C.) was 92.84 % w/w. For the same molecule, the “Assay (% w/w)” value ([2]; 3 month storage, 0° C.) was 1.80 % w/w, the “Recovery … (% of initial assay)” value ([2]; 3 month storage, 0° C.) was 99.13 % w/w and the “Assay (% w/w)” value ([2]; 3 month storage, 25° C.) was 1.79 % w/w. For the same molecule, the “Recovery … (% of initial assay)” value ([2]; 3 month storage, 25° C.) was 98.51 % w/w, the “Assay (% w/w)” value ([2]; 3 month storage, 40° C.) was 1.72 % w/w and the “Recovery … (% of initial assay)” value ([2]; 3 month storage, 40° C.) was 95.13 % w/w. The “Assay (% w/w)” value ([2]; 3 month storage, −10° C.) was 1.78 % w/w, the “Recovery … (% of initial assay)” value ([2]; 3 month storage, −10° C.) was 98.44 % w/w and the “Assay (% w/w)” value ([2]; F/T sample) was 1.80 % w/w. The “Recovery … (% of initial assay)” value ([2]; F/T sample) was 99.26 % w/w and the “Assay (% w/w)” value ([2]; Initial) was 1.81 % w/w.
